Patent US11358972B2, “Pentacyclic heterocycles” (Eisai R&D Management Co., Ltd., priority 2019, dated 2022)

Experiments:
[1] = tested on: Rat primary septal neuron culture; assay: Measurement of acetylcholine (ACh) release in the rat primary septal neuron culture system; type: cell-based; conditions: 24 h, rat primary septal neurons, with NGF, ACh release measured by HPLC one day after compound addition, read-out: Concentration (μM) showing a 20% or more increase from the amount of ACh in the control group
From the text: Measurement of Acetylcholine (ACh) Release in the Rat Primary Septal Neuron Culture System
(1) Rat Primary Septal Neuron Culture
The septal area was isolated from Sprague-Dawley (SD) rats (Charles River Laboratories Japan, Inc.) at a fetal age of 18 days, and cultured. Specifically, fetuses were removed from pregnant rats under isoflurane anesthesia. The brain was extracted from each fetus, and immersed in ice-cooled L-15 medium (11415-064, Thermo Fisher Scientific). The septal area was dissected from the extracted brain under a stereoscopic microscope. The dissected septal area was treated in 0.25% trypsin (15050-065, Thermo Fisher Scientific) and 0.01% DNase (D5025-150KU, Sigma) at 37° C. for 30 minutes, thereby dispersing the cells. In this case, the enzyme reaction was terminated by adding inactivated horse serum (26050-088, Thermo Fisher Scientific). The enzyme-treated solution was centrifuged at 1000 rpm for 3 minutes, and the supernatant was removed. A medium in an amount of 10 mL was added to the obtained cell mass. The medium used was Dulbecco's Modified Eagle's Medium (044-29765, WAKO) supplemented with N2 supplement (17502-048, Thermo Fisher Scientific), 1 mM sodium pyruvate (11360-070, Thermo Fisher Scientific), and Penicillin-Streptomycin (15140-1221, Thermo Fisher Scientific). The cells of the cell mass to which the medium was added were redispersed by gentle pipetting, and then centrifuged again at 1000 rpm for 3 minutes, and the supernatant was removed. The medium in an amount of 10 mL was added to the obtained cell mass, and the cell dispersion was filtered through a 40-μm nylon mesh (Cell Strainer) to remove the cell mass, thereby obtaining a neuronal cell suspension. The neuronal cell suspension was diluted with the medium, and 10% inactivated bovine serum (26140-079, Thermo Fisher Scientific) and 10% inactivated horse serum were added. Thereafter, 100 μL/well of the suspension was seeded in a 96-well plate (354461, CORNING) pre-coated with poly-D-lysine so that the initial culture density was 1.2×10^5 cells/cm^2. After the seeded cells were cultured under 5% CO2-95% air in a 37° C. incubator for 2 days, the entire medium was replaced with 120 μL of fresh medium, and the cells were subsequently cultured for 5 days.
On the 7th day of culture, compounds were added in the following manner. A solution of the test compound in DMSO was diluted with the medium so that the concentration was 10 times higher than the final concentration. Nerve Growth Factor (450-01, PEPRO TECH, INC.) was prepared at […]. These two solutions were added each in an amount of 15 μL/well, and the mixture was mixed well. The final DMSO concentration was 0.1% or less. Moreover, only DMSO and NGF were added to the control group.
(3) ACh Release Measurement
One day after the compound addition, an amount of ACh release was measured by HPLC in the following manner. A warmed buffer was added at 100 μL/well to the well after the medium was eliminated, and the buffer was immediately removed. Thereafter, a buffer to which 10 μm choline, 10 μm physostigmine, and 6 mM KCl were added was added at 120 μL/well. The buffer was prepared by adding 125 mM NaCl, 25 mM 4-(2-hydroxyethyl)-1-piperazineethanesulfonic acid, 1.2 mM KH2PO4, 1.2 mM MgSO4, 2.2 mM CaCl2 (2H2O), and 10 mM glucose to sterilized water, and the final pH of the solution was set to 7.4. After the 96-well plate to which the buffer was added was incubated under 5% CO2-95% air in a 37° C. incubator for 40 minutes, 80 μL of buffer was collected. An internal standard solution IPHC (5×10^−7 M) was added in an amount of 6 μL to the collected buffer, and the buffer was transferred to a tube for HPLC measurement and subjected to HPLC measurement. […]

[2] = tested on: Choline Acetyltransferase (ChAT) mRNA; assay: Measurement of choline acetyltransferase (ChAT) mRNA expression levels in the rat septal area; type: in vivo; conditions: po, SD male rats, medial septum, 24 hours after administration, read-out: Amount (%) increased from the amount of ChAT mRNA expression levels in the vehicle administration group
Experimental: Measurement of Choline Acetyltransferase (ChAT) mRNA Expression Levels in the Rat Septal Area (1) Compound Administration
In this study, Sprague-Dawley male rats (Charles River Laboratories Japan, Inc.) with a body weight of about 250 to 350 g were used. The test compound was dissolved in 0.01 mol/L hydrochloric acid, and orally administered.
At 24 hours after the administration of the compound, the whole brain tissue was collected under pentobarbital anesthesia. The medial septum was isolated from whole brain on ice and frozen with liquid nitrogen, and then stored at −80° C.
(3) Measurement of ChAT mRNA Expression Levels
For RNA purification, RNeasy™ Plus Mini Kit (#74136: QIAGEN) was used in this study. RNA purification was performed by the method described in the kit After RNA purification, the total RNA concentration was measured by using QIAxpert Instrument (QIAGEN). cDNA was synthesized using SuperScript™ VILO™ cDNA Synthesis Kit (#11754: Thermo Fisher Scientific). The synthesis of cDNA was performed by the method described in the kit. The synthesized cDNA was diluted 4 times with RNase free water, and the diluted cDNA solution was used as a sample. Taqman™ Universal PCR Master Mix (#4304437: Thermo Fisher Scientific), Taqman™ Gene Expression Assays, INVENTORIED (#4331182: Thermo Fisher Scientific), RNase free water, and the cDNA solution were mixed in amounts of 10 μL, 1 μL, 4 μL, and 5 μL, respectively, and the resulting mixture was used as a measurement sample solution. Quantitative polymerase chain reaction (qPCR) was conducted using ABI PRISM™ 7900HT (Thermo Fisher Scientific) by a fluorescence probe method. Analysis was performed by SDS 2.4 (Thermo Fisher Scientific). The results were calculated by the percentage of the amount of ChAT mRNA expression levels in the compound administration group increased from the amount of ChAT mRNA expression levels in the vehicle administration group.

SMILES	minimal effective concentration [1] [µM]	change in vivo at 1 mg/kg ([2]; 1 mg/kg orally) [%]	change in vivo at 3 mg/kg ([2]; 3 mg/kg orally) [%]
CN1C[C@H]2C(=O)N(C)Cc3nc4sc5c(c4c(=O)n3[C@H]2C1)CC[C@@H](F)C5 [Example 15, (3aR,10R,14aR)-10-fluoro-2,5-dimethyl-2,3,3a,5,6,9,10,11,12,14a-decahydro-1H-benzo[4′,5′]thieno[2′,3′:4,5]pyrimido[1,2-a]pyrrolo[3,4-f][1,4]diazepine-4,13-dione]	0.3	49	–
COCCN1CCc2c(sc3nc4n(c(=O)c23)[C@H]2CCC[C@@H]2C(=O)N(C)C4)C1 [Example 16, (3aS,4aS)-10-(2-methoxyethyl)-5-methyl-2,3,3a,5,6,9,10,11,12,14a-decahydro-1H-cyclopenta[f]pyrido[4″,3″:4′,5′]thieno[2′,3′:4,5]pyrimido[1,2-a][1,4]diazepine-4,13-dione]	0.03	–	42.5
